“And” between values parts separate entries of the source, which are not always exact repeats. Identical values can stand only once. Inconclusive results and toxic doses are left out.

The experiment deals with P388 leukemia ip, CD2F1 mice, survival T/C. In words: NCI In Vivo Anticancer Drug Screen. Data for tumor model P388 Leukemia (intraperitoneal) in CD2F1 (CDF1) mice. The following applies: endpoint: median survival time, higher = longer survival. The method in brief: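 Mice carrying the transplanted tumor received test compound or vehicle. Survival was recorded in each group, and the value is the treated-group measurement divided by that of the vehicle-treated control group.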

Setting [1] is: dose: 50.0 mg/kg/injection, schedule: Q01DX005 (ip), vehicle: saline with Tween-80.
Where [2] appears, read: dose: 100.0 mg/kg/injection, schedule: Q01DX005 (ip), vehicle: saline with Tween-80.
The mark [3] stands for this setting: dose: 200.0 mg/kg/injection, schedule: Q01DX005 (ip), vehicle: saline with Tween-80.
The mark [4] stands for this setting: dose: 12.5 mg/kg/injection, schedule: Q01DX009 (ip), vehicle: Klucel (hydroxypropylcellulose) (HPC).
Where [5] appears, read: dose: 25.0 mg/kg/injection, schedule: Q01DX009 (ip), vehicle: Klucel (hydroxypropylcellulose) (HPC).
Setting [6] is: dose: 50.0 mg/kg/injection, schedule: Q01DX009 (ip), vehicle: Klucel (hydroxypropylcellulose) (HPC).
The mark [7] stands for this setting: dose: 200.0 mg/kg/injection, schedule: Q01DX009 (ip), vehicle: Klucel (hydroxypropylcellulose) (HPC).
Setting [8] is: dose: 50.0 mg/kg/injection, schedule: Q01DX005 (ip), vehicle: Klucel (hydroxypropylcellulose) (HPC).
Setting [9] is: dose: 100.0 mg/kg/injection, schedule: Q01DX005 (ip), vehicle: Klucel (hydroxypropylcellulose) (HPC).
The mark [10] stands for this setting: dose: 100.0 mg/kg/injection, schedule: Q04DX003 (ip), vehicle: saline.
Where [11] appears, read: dose: 200.0 mg/kg/injection, schedule: Q04DX003 (ip), vehicle: saline.
Setting [12] is: dose: 100.0 mg/kg/injection, schedule: Q04DX003 (ip), vehicle: Klucel (hydroxypropylcellulose) (HPC).

Consider `NC(=O)N(c1ccccc1)c1ccccn1`, for which the T/C (dose: 60.0 mg/kg/injection, schedule: Q01DX005 (ip), vehicle: saline with Tween-80) was 97 % of control; the T/C (dose: 120.0 mg/kg/injection, schedule: Q01DX005 (ip), vehicle: saline with Tween-80) was 97 % of control; the T/C (dose: 240.0 mg/kg/injection, schedule: Q01DX005 (ip), vehicle: saline with Tween-80) is 94 % of control.

As for `CC(C)(C)OC(=O)NC(CCC(N)=O)C(=O)ON1C(=O)CCC1=O` (stereo unspecified), the T/C is 98 % of control under setting [1], 99 % of control under setting [2] and 104 % of control under setting [3].

On to `Cc1c2cccc(F)c2c[n+]2ccccc12`, for which the T/C (dose: 6.25 mg/kg/injection, schedule: Q01DX009 (ip), vehicle: Klucel (hydroxypropylcellulose) (HPC)) was 96 % of control; the T/C under setting [4] is 103 % of control; the T/C under setting [5] was 102 % of control and 113 % of control.

For `Cc1ccc(S(=O)(=O)Nc2ccc3ncccc3c2)cc1`, the T/C was 99 % of control (dose: 100.0 mg/kg/injection, schedule: Q04DX003 (ip), vehicle: saline with Tween-80) and 98 % of control (dose: 200.0 mg/kg/injection, schedule: Q04DX003 (ip), vehicle: saline with Tween-80).

Regarding `CCOc1c(N=Nc2ccc(O)cc2)c(C)nn1C(N)=S`, the T/C (dose: 15.0 mg/kg/injection, schedule: Q01DX005 (ip), vehicle: Klucel + Tween-80) was 99 % of control and the T/C (dose: 30.0 mg/kg/injection, schedule: Q01DX005 (ip), vehicle: Klucel + Tween-80) is 101 % of control.

In the case of `CC12CC(=O)NC(=O)N1CCS2` (stereo unspecified), the T/C is, setting by setting: under setting [6], 106 % of control; (dose: 100.0 mg/kg/injection, schedule: Q01DX009 (ip), vehicle: Klucel (hydroxypropylcellulose) (HPC)) 100 % of control; under setting [7], 92 % of control.

As for `CCOC(=O)CC1(O)Oc2cc3c(cc2C(c2cc(OC)c(OC)c(OC)c2)C1C(=O)OCC)OCO3` (stereo unspecified), the T/C runs as follows: (dose: 60.0 mg/kg/injection, schedule: Q01DX005 (ip), vehicle: Klucel (hydroxypropylcellulose) (HPC)) 87 % of control; (dose: 120.0 mg/kg/injection, schedule: Q01DX005 (ip), vehicle: Klucel (hydroxypropylcellulose) (HPC)) 89 % of control; (dose: 240.0 mg/kg/injection, schedule: Q01DX005 (ip), vehicle: Klucel (hydroxypropylcellulose) (HPC)) 88 % of control.

Consider `O=C1C2C3C=CC(C3)C2C(=O)N1c1ccc2nc(SC3C=CCCC3)sc2c1` (stereo unspecified), for which the T/C under setting [4] was 100 % of control; the T/C under setting [5] was 106 % of control; the T/C under setting [6] is 99 % of control and 97 % of control; the T/C under setting [7] was 88 % of control.

Turning to `c1ccc2c(c1)nnn1c3cnccc3nc21`, where the note is “dose: 12.5 mg/kg/injection, schedule: Q01DX009 (ip), vehicle: saline with Tween-80”, the T/C was 111 % of control.

As for `CC(NNC(=S)N1CCC(c2ccccc2)CC1)c1ccc2ccccc2n1` (stereo unspecified), the T/C by setting is: under setting [8], 97 % of control; under setting [9], 105 % of control.

On to `Brc1nc(-[n+]2ccccc2)[n-]c1Br`, for which the T/C is, setting by setting: under setting [10], 101 % of control; under setting [11], 99 % of control; (dose: 400.0 mg/kg/injection, schedule: Q04DX003 (ip), vehicle: saline) 100 % of control.

Consider `COc1ccc2c(c1)C(Br)CCCC2=O` (stereo unspecified), for which, for the setting “dose: 400.0 mg/kg/injection, schedule: Q01DX009 (ip), vehicle: distilled water + alcohol”, the T/C is 106 % of control.

Consider `NC(=NCCCC(NC(=O)c1ccccc1)C(=O)O)NC(=O)c1ccccc1` (stereo unspecified), for which the T/C is 108 % of control and 91 % of control (dose: 25.0 mg/kg/injection, schedule: Q01DX009 (ip), vehicle: saline with Tween-80); 100 % of control and 90 % of control (dose: 50.0 mg/kg/injection, schedule: Q01DX009 (ip), vehicle: saline with Tween-80); 93 % of control and 96 % of control (dose: 100.0 mg/kg/injection, schedule: Q01DX009 (ip), vehicle: saline with Tween-80); 86 % of control and 97 % of control (dose: 200.0 mg/kg/injection, schedule: Q01DX009 (ip), vehicle: saline with Tween-80).

As to `CCC(C)C(NC(=O)C(C)Oc1cc(Cl)c(Cl)cc1Cl)C(=O)O` (stereo unspecified), the T/C is, setting by setting: under setting [1], 92 % of control; under setting [2], 101 % of control.

`O=NNc1cnccn1`: the T/C is, setting by setting: (dose: 1.56 mg/kg/injection, schedule: Q01DX009 (ip), vehicle: water) 100 % of control; (dose: 3.12 mg/kg/injection, schedule: Q01DX009 (ip), vehicle: water) 109 % of control and 100 % of control; (dose: 6.25 mg/kg/injection, schedule: Q01DX009 (ip), vehicle: water) 110 % of control and 112 % of control and 97 % of control; (dose: 12.5 mg/kg/injection, schedule: Q01DX009 (ip), vehicle: water) 116 % of control and 122 % of control; (dose: 25.0 mg/kg/injection, schedule: Q01DX009 (ip), vehicle: water) 150 % of control; (dose: 25.3 mg/kg/injection, schedule: Q01DX009 (ip), vehicle: other) 161 % of control. Moreover, the T/C reads like this: (dose: 25.3 mg/kg/injection, schedule: Q01DX009 (ip), vehicle: water) 170 % of control; (dose: 37.5 mg/kg/injection, schedule: Q01DX009 (ip), vehicle: water) 224 % of control and 245 % of control and 271 % of control; (dose: 38.0 mg/kg/injection, schedule: Q01DX009 (ip), vehicle: other) 225 % of control; (dose: 50.0 mg/kg/injection, schedule: Q01DX009 (ip), vehicle: water) 118 % of control [middle of 5 runs]; (dose: 57.0 mg/kg/injection, schedule: Q01DX009 (ip), vehicle: water) 112 % of control.

Regarding `CC(C)CC(=O)CC(=O)C(C)(C)C.CC(C)CC(=O)CC(=O)C(C)(C)C.[Cu]`, the T/C is, setting by setting: (dose: 25.0 mg/kg/injection, schedule: Q04DX003 (ip), vehicle: Klucel (hydroxypropylcellulose) (HPC)) 100 % of control; (dose: 50.0 mg/kg/injection, schedule: Q04DX003 (ip), vehicle: Klucel (hydroxypropylcellulose) (HPC)) 101 % of control; under setting [12], 98 % of control and 106 % of control.

`CC1(C)N=C(N)N=C(N)N1c1ccc(CCc2ccccc2)cc1`: the T/C is 87 % of control (dose: 37.5 mg/kg/injection, schedule: Q04DX003 (ip), vehicle: saline with Tween-80); 100 % of control (dose: 75.0 mg/kg/injection, schedule: Q04DX003 (ip), vehicle: saline with Tween-80); 120 % of control under setting [10]; 100 % of control under setting [11].

For the compound `CCCCNC(=O)C(C)OC(C)=O` (stereo unspecified), the T/C is, setting by setting: under setting [1], 96 % of control; under setting [2], 99 % of control; under setting [3], 96 % of control.

Take `Cc1cc(Cl)ccc1-n1nc(C)c2c(N)nc(N)nc21`: the T/C under setting [12] was 109 % of control and the T/C (dose: 200.0 mg/kg/injection, schedule: Q04DX003 (ip), vehicle: Klucel (hydroxypropylcellulose) (HPC)) is 102 % of control.

As for `C/C(=N\Nc1cc(C)nc2cc3c(cc12)OCO3)c1cn(C)n(-c2ccccc2)c1=O`, the T/C is 97 % of control (dose: 3.12 mg/kg/injection, schedule: Q01DX005 (ip), vehicle: Klucel (hydroxypropylcellulose) (HPC)); 97 % of control (dose: 6.25 mg/kg/injection, schedule: Q01DX005 (ip), vehicle: Klucel (hydroxypropylcellulose) (HPC)); 103 % of control and 96 % of control (dose: 12.5 mg/kg/injection, schedule: Q01DX005 (ip), vehicle: Klucel (hydroxypropylcellulose) (HPC)); 100 % of control (dose: 25.0 mg/kg/injection, schedule: Q01DX005 (ip), vehicle: Klucel (hydroxypropylcellulose) (HPC)); 98 % of control and 110 % of control under setting [8]; 109 % of control under setting [9].

As to `COc1cc2c(c(OC)c1OC)-c1ccc(O)c(=O)cc1C(N)CC2` (stereo unspecified), the T/C reads like this: (dose: 3.12 mg/kg/injection, schedule: Q01DX008 (ip), vehicle: saline) 101 % of control and 97 % of control; (dose: 6.25 mg/kg/injection, schedule: Q01DX008 (ip), vehicle: saline) 100 % of control and 102 % of control; (dose: 12.5 mg/kg/injection, schedule: Q01DX008 (ip), vehicle: saline) 102 % of control and 105 % of control; (dose: 25.0 mg/kg/injection, schedule: Q01DX008 (ip), vehicle: saline) 102 % of control and 105 % of control; (dose: 50.0 mg/kg/injection, schedule: Q01DX008 (ip), vehicle: saline) 105 % of control and 110 % of control; (dose: 100.0 mg/kg/injection, schedule: Q01DX008 (ip), vehicle: saline) 109 % of control and 113 % of control.
